4 molecules from patent publication US12491248B2, “Method for generating immunoregulatory cells in a blood-derived sample” (Therakos Development Limited, priority 2019, dated 2025) can be followed below.

Data set [1] concerns immune checkpoint inhibitor-related colitis. As to the kind of experiment: Immunosuppressive drug treatment of the patient's colitis episodes before ECP. It is filed as in vivo, human. Here is the method: (§1) A patient was treated with ipilimumab and nivolumab for metastatic melanoma. […] Colitis was diagnosed based on macroscopic mucosal ulcerations and intraepithelial apoptosis and crypt loss identified in the biopsy (FIG. 1a,b). While dermatitis, thyroiditis and hepatitis resolved after stopping ipilimumab/nivolumab and corticosteroid treatment, the patient experienced three colitis episodes within the next 20 weeks (CTC-AE II-III°). These were treated with corticosteroids (in total 23 weeks prior to ECP), infliximab (2 single doses 18 and 15 weeks prior to ECP) and cyclosporine (14 weeks prior to ECP, FIG. 1a and Table 1).
The patient had their first episode of colitis 20 weeks prior to the start of ECP. At that time point they had been treated for 3 weeks with steroids for their previous immune checkpoint inhibitor-related hepatitis, thyroiditis and dermatitis. The colitis occurred during tapering of the steroids. Therefore, the steroid dose was increased and due to an insufficient response, infliximab 5 mg/kg BW was administered once. […] Upon steroid tapering, the patient experienced their second episode of colitis, 16 weeks prior to begin of ECP. They were treated with an increased dose of methylprednisolone and a second dose of infliximab. The diarrhea was refractory to this therapy and consequently cyclosporine A was added. […] Here, ECP treatment was initiated. […]

A short description of data set [2]: Adverse events of ipilimumab and nivolumab in the metastatic melanoma patient. Particulars: after two doses of ipilimumab and nivolumab. It is filed as in vivo, human. Here is the method: as §1
Data set [3] has as its system B16 melanoma cells. As to the kind of experiment: Survival of melanoma-bearing mice treated with anti-PD1. The format is in vivo. Particulars: combined with anti-PD1, compared to anti-PD1 only. Here is the method: FIG. 7: • (a) Treatment schedule: Mice were injected iv with B16 melanoma cells and afterwards treated with anti-PD1, prednisolone or ECP as indicated. • (b) Survival of mice injected iv with B16 melanoma cells and afterwards treated with anti-PD1, prednisolone or ECP.
To understand if the immunomodulatory effect of ECP was connected to a loss of anti-tumor activity we next treated melanoma bearing mice with anti-PD1 alone or in combination with the glucocorticoid prednisolone or ECP (FIG. 7A). We observed that prednisolone reduced the survival of melanoma-bearing mice compared to the group treated with anti-PD1 only (FIG. 7B).

As to infliximab: anti-TNF antibody, the “diarrhea, second episode” value in data set [1] (increased dose of methylprednisolone and a second dose of infliximab) was “refractory”. In addition, the “colitis symptoms, first episode” value in data set [1] (infliximab 5 mg/kg BW once, added to increased steroid dose) was “symptoms resolved”.

Turning to “ipilimumab: antagonistic antibody directed against CTLA4”, in data set [2], the “immune-related adverse events developed” value is “dermatitis, thyroiditis, hepatitis and colitis”.

Take “nivolumab: antagonistic anti-PD-1 antibody”: the “immune-related adverse events developed” value in data set [2] is “dermatitis, thyroiditis, hepatitis and colitis”.

Regarding `C[C@]12C=CC(=O)C=C1CC[C@@H]1[C@@H]2[C@@H](O)C[C@@]2(C)[C@H]1CC[C@]2(O)C(=O)CO` [prednisolone], in data set [3], the “survival of melanoma-bearing mice” value is on record as “reduced”.
